Data as given in US20230233569A1 (Revolution Medicines, Inc., priority 2020, published 2023).
Where two headings read alike, the source gives them in different places.

Legend:
[1] = tested on: Capan-1 (K-Ras G12V); assay: CellTiter-Glo cell viability assay, 5-day treatment; type: cell-based; settings: Homo sapiens, CAPAN-1, 120 h, 5-day treatment; read-out: Capan-1 Cell Viability assay data (K-Ras G12V, IC50)
Summary of the method: (§1)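 Five-day compound treatment of plated cells; luminescent read after ~30 min at RT. Percent-of-DMSO data fit to a four-parameter logistic model.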

[2] = tested on: NCI-H358 (K-Ras G12C); assay: as above; type: cell-based; settings: Homo sapiens, NCI-H358, 120 h, 5-day treatment; read-out: H358 Cell Viability assay data (K-Ras G12C, IC50)
Summary of the method: as §1

[3] = biological target: KRAS G12C (Homo sapiens, UniProt P01116+P62937, G12C); assay: Disruption of BRAF RBD interaction with Ras (FRET / MOA assay, with Cyclophilin A); type: biochemical
Chain of KRAS G12C (P01116 1-169 isoform P01116-2 G12C): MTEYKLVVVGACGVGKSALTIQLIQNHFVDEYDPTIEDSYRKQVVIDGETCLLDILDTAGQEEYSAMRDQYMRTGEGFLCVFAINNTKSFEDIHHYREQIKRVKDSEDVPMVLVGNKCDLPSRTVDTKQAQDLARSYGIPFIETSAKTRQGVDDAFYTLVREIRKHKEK
Chain of KRAS G12C (P62937 whole entry): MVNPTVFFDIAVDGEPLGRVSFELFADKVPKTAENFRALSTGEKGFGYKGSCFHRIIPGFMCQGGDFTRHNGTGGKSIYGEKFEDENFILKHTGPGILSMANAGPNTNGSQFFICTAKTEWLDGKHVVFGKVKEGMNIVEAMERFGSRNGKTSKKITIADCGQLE
Summary of the method: (§2)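 IC50 values reflect loss of K-Ras binding to BRAF RBD, read as a lowered TR-FRET ratio compared with DMSO, driven by compound-mediated K-Ras:Cyclophilin A complex formation. Compound top dose 30 μM final, 3-fold steps, 3 h incubation at 25 °C before a 1.5 h antibody step.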

[4] = biological target: KRAS G12D (Homo sapiens, UniProt P01116+P62937, G12D); assay: as above; type: biochemical
Chain of KRAS G12D (P01116 1-169 isoform P01116-2 G12D limits assumed): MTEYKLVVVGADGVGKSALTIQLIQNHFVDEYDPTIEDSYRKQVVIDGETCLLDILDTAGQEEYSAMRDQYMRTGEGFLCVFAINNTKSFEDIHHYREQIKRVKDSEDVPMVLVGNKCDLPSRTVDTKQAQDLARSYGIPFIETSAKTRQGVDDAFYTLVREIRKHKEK
Chain of KRAS G12D (P62937 whole entry): as the sequence (P62937 whole entry) above
Summary of the method: as §2

[5] = biological target: KRAS G12S (Homo sapiens, UniProt P01116+P62937, G12S); assay: as above; type: biochemical
Chain of KRAS G12S (P01116 1-169 isoform P01116-2 G12S limits assumed): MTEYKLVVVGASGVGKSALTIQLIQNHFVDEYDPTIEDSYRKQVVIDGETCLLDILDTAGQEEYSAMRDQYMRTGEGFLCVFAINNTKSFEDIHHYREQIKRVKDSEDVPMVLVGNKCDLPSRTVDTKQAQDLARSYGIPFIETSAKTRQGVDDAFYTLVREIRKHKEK
Chain of KRAS G12S (P62937 whole entry): as the sequence (P62937 whole entry) above
Summary of the method: as §2

[6] = biological target: KRAS G12V (Homo sapiens, UniProt P01116+P62937, G12V); assay: as above; type: biochemical
Chain of KRAS G12V (P01116 1-169 isoform P01116-2 G12V limits assumed): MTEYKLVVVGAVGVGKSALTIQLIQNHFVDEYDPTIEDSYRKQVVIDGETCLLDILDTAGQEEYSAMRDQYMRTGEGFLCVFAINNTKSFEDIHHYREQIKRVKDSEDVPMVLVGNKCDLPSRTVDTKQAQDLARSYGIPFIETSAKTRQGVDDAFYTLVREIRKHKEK
Chain of KRAS G12V (P62937 whole entry): as the sequence (P62937 whole entry) above
Summary of the method: as §2

[7] = biological target: KRAS G13C (Homo sapiens, UniProt P01116+P62937, G13C); assay: as above; type: biochemical
Chain of KRAS G13C (P01116 1-169 isoform P01116-2 G13C): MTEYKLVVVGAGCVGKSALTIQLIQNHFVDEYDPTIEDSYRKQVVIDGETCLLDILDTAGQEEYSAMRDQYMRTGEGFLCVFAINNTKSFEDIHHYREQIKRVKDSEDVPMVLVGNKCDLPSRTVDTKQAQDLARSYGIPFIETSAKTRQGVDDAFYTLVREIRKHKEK
Chain of KRAS G13C (P62937 whole entry): as the sequence (P62937 whole entry) above
Summary of the method: as §2

[8] = biological target: KRAS G13D (Homo sapiens, UniProt P01116+P62937, G13D); assay: as above; type: biochemical
Chain of KRAS G13D (P01116 1-169 isoform P01116-2 G13D limits assumed): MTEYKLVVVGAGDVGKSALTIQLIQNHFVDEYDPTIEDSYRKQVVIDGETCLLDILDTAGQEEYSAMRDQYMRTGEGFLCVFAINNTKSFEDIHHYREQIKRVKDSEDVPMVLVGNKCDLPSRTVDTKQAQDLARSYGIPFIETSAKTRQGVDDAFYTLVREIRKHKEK
Chain of KRAS G13D (P62937 whole entry): as the sequence (P62937 whole entry) above
Summary of the method: as §2

[9] = biological target: KRAS WT (Homo sapiens, UniProt P01116+P62937); assay: as above; type: biochemical
Chain of KRAS WT (P01116 1-169 isoform P01116-2 limits assumed): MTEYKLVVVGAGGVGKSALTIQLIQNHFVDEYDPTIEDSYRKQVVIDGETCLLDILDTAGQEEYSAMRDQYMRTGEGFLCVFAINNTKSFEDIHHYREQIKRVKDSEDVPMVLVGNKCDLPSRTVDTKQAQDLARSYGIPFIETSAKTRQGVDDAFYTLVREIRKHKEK
Chain of KRAS WT (P62937 whole entry): as the sequence (P62937 whole entry) above
Summary of the method: as §2

[10] = biological target: NRAS G12C (Homo sapiens, UniProt P01111+P62937, G12C); assay: as above; type: biochemical
Chain of NRAS G12C (P01111 whole entry G12C): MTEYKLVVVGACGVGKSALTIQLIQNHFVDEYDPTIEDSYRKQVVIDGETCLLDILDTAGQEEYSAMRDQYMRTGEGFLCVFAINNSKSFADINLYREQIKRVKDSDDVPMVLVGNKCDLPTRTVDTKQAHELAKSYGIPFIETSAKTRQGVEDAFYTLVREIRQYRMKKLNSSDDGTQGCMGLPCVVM
Chain of NRAS G12C (P62937 whole entry): as the sequence (P62937 whole entry) above

[11] = read-out: KRAS G12C FRET data, IC50
[12] = read-out: KRAS G12D FRET data, IC50
[13] = read-out: KRAS G12S FRET data, IC50
[14] = KRAS G12V, read-out: KRAS G12V FRET data IC50
[15] = read-out: KRAS G13C FRET data, IC50
[16] = KRAS G13D, read-out: KRAS G13D FRET data IC50
[17] = KRAS WT, read-out: KRAS WT FRET data IC50
[18] = NRAS G12C, read-out: NRAS G12C FRET data IC50
[19] = KRAS G12V FRET data IC50, KRAS G12V
[20] = KRAS G13D FRET data IC50, KRAS G13D
[21] = KRAS WT FRET data IC50, KRAS WT
[22] = NRAS G12C FRET data IC50, NRAS G12C

Structure (SMILES)	IC50 [1]	IC50 [2]	IC50 [3, 11]	IC50 [4, 12]	IC50 [5, 13]	IC50 [6, 14]	IC50 [7, 15]	IC50 [8, 16]	IC50 [9, 17]	IC50 [10, 18]	IC50 ([3]; KRAS G12C FRET data, IC50)	IC50 ([4]; KRAS G12D FRET data, IC50)	IC50 ([5]; KRAS G12S FRET data, IC50)	IC50 [6, 19]	IC50 ([7]; KRAS G13C FRET data, IC50)	IC50 [8, 20]	IC50 [9, 21]	IC50 [10, 22]
CCn1c(-c2cccnc2[C@H](C)OC)c2c3cc(ccc31)-c1cc(O)cc(c1)C[C@H](NC(=O)[C@H](C(C)C)N(C)C(=O)[C@H]1CCN(C(=O)CNC)C1)C(=O)N1CCC[C@H](N1)C(=O)OCC(C)(C)C2 (atropisomer, axis not shown) [Example A120]	> 10 µM	1 to 10 µM	0.01 to 0.1 µM	0.01 to 0.1 µM	0.01 to 0.1 µM	0.1 to 1 µM	0.1 to 1 µM	0.1 to 1 µM	0.1 to 1 µM	0.01 to 0.1 µM								
CCn1c(-c2cccnc2[C@H](C)OC)c2c3cc(ccc31)-c1cc(O)cc(c1)C[C@H](NC(=O)[C@H](C(C)C)N(C)C(=O)[C@H]1C[C@@H](O)C1)C(=O)N1CCC[C@H](N1)C(=O)OCC(C)(C)C2 (atropisomer, axis not shown) [Example A121]	0.1 to 1 µM	0.1 to 1 µM									0.01 to 0.1 µM	0.1 to 1 µM	0.01 to 0.1 µM	0.01 to 0.1 µM	0.01 to 0.1 µM	0.01 to 0.1 µM	0.01 to 0.1 µM	0.01 to 0.1 µM
CCn1c(-c2cccnc2[C@H](C)OC)c2c3cc(ccc31)-c1cc(O)cc(c1)C[C@H](NC(=O)[C@H](C(C)C)N(C)C(=O)[C@H]1CCC[C@H]1N)C(=O)N1CCC[C@H](N1)C(=O)OCC(C)(C)C2 (atropisomer, axis not shown) [Example A131]	0.1 to 1 µM	0.01 to 0.1 µM	0.01 to 0.1 µM	0.01 to 0.1 µM	0.01 to 0.1 µM	0.1 to 1 µM	0.01 to 0.1 µM	0.01 to 0.1 µM	0.01 to 0.1 µM	0.01 to 0.1 µM								
CCn1c(-c2cccnc2[C@H](C)OC)c2c3cc(ccc31)-c1cc(O)cc(c1)C[C@H](NC(=O)[C@H](C(C)C)N(C)C(=O)C1(O)CC1)C(=O)N1CCC[C@H](N1)C(=O)OCC(C)(C)C2 (atropisomer, axis not shown) [Example A132]	0.01 to 0.1 µM	0.1 to 1 µM	0.01 to 0.1 µM	0.1 to 1 µM	0.1 to 1 µM	0.1 to 1 µM	0.01 to 0.1 µM	0.1 to 1 µM	0.1 to 1 µM	0.1 to 1 µM								
CCn1c(-c2cccnc2[C@H](C)OC)c2c3cc(ccc31)-c1cc(O)cc(c1)C[C@H](NC(=O)[C@H](C(C)C)N(C)C(=O)[C@H]1CCN(C(=O)CN)C1)C(=O)N1CCC[C@H](N1)C(=O)OCC(C)(C)C2 [Example A1]	1 to 10 µM	1 to 10 µM	0.01 to 0.1 µM	0.01 to 0.1 µM	0.01 to 0.1 µM	0.01 to 0.1 µM	0.01 to 0.1 µM	0.01 to 0.1 µM	0.01 to 0.1 µM	0.01 to 0.1 µM								
CCn1c(-c2cnccc2COC)c2c3cc(ccc31)-c1cc(O)cc(c1)C[C@H](NC(=O)[C@H](C(C)C)N(C)C(=O)[C@H]1CCN(C(=O)OC)C1)C(=O)N1CCC[C@H](N1)C(=O)OCC(C)(C)C2 [Example A11, methyl (3S)-3-{[(1S)-1-{[(8S,14S)-22-ethyl-4-hydroxy-21-[4-(methoxymethyl)pyridin-3-yl]-18,18-dimethyl-9,15-dioxo-16-oxa-10,22,28-triazapentacyclo[18.5.2.1^2,6.1^10,14.0^23,27]nonacosa-1(26),2,4,6(29),20,23(27),24-heptaen-8-yl]carbamoyl}-2-methylpropyl](methyl)carbamoyl}pyrrolidine-1-carboxylate]	0.1 to 1 µM	0.1 to 1 µM									0.01 to 0.1 µM	1 to 10 µM	0.1 to 1 µM	0.01 to 0.1 µM	0.1 to 1 µM	0.1 to 1 µM	0.1 to 1 µM	0.01 to 0.1 µM
CCn1c(-c2cnccc2COC)c2c3cc(ccc31)-c1cc(O)cc(c1)C[C@H](NC(=O)[C@H](C(C)C)N(C)C(=O)[C@H]1CCN(C=O)C1)C(=O)N1CCC[C@H](N1)C(=O)OCC(C)(C)C2 [Example A17, (2S)—N-[(8S,14S)-22-ethyl-4-hydroxy-21-[4-(methoxymethyl)pyridin-3-yl]-18,18-dimethyl-9,15-dioxo-16-oxa-10,22,28-triazapentacyclo[18.5.2.1^2,6.1^10,14.0^23,27]nonacosa-1(26),2,4,6(29),20,23(27),24-heptaen-8-yl]-2-{1-[(3S)-1-formylpyrrolidin-3-yl]-N-methylformamido}-3-methylbutanamide]	1 to 10 µM	1 to 10 µM									0.01 to 0.1 µM	1 to 10 µM	0.1 to 1 µM	0.1 to 1 µM	0.1 to 1 µM	0.1 to 1 µM	0.1 to 1 µM	0.1 to 1 µM
CCn1c(-c2cccnc2[C@H](C)OC)c2c3cc(ccc31)-c1cc(O)cc(c1)C[C@H](NC(=O)[C@H](C(C)C)N(C)C(=O)C1COC1)C(=O)N1CCC[C@H](N1)C(=O)OCC(C)(C)C2 [Example A18]	0.1 to 1 µM	0.1 to 1 µM	0.01 to 0.1 µM	1 to 10 µM	0.1 to 1 µM	0.1 to 1 µM	0.1 to 1 µM	0.1 to 1 µM	0.1 to 1 µM	0.1 to 1 µM								
CCn1c(-c2cnccc2COC)c2c3cc(ccc31)-c1cc(O)cc(c1)C[C@H](NC(=O)[C@H](C(C)C)N(C)C(=O)C1C[C@@H]1C)C(=O)N1CCC[C@H](N1)C(=O)OCC(C)(C)C2 (some centres unmarked) [Example A19]	0.1 to 1 µM	0.1 to 1 µM	0.01 to 0.1 µM	1 to 10 µM	0.1 to 1 µM	0.1 to 1 µM	0.1 to 1 µM	0.1 to 1 µM	0.1 to 1 µM	0.1 to 1 µM								
CCn1c(-c2cnccc2[C@H](C)OC)c2c3cc(ccc31)-c1cc(O)cc(c1)C[C@H](NC(=O)[C@H](C(C)C)N(C)C(C)=O)C(=O)N1CCC[C@H](N1)C(=O)OCC(C)(C)C2 [Example A21]	0.1 to 1 µM	0.1 to 1 µM	0.1 to 1 µM	1 to 10 µM	0.1 to 1 µM	0.1 to 1 µM	0.01 to 0.1 µM	0.1 to 1 µM	0.1 to 1 µM	0.1 to 1 µM								
CCn1c(-c2cnccc2COC)c2c3cc(ccc31)-c1cc(O)cc(c1)C[C@H](NC(=O)[C@H](C(C)C)N(C)C(=O)[C@H]1CCOC1)C(=O)N1CCC[C@H](N1)C(=O)OCC(C)(C)C2 [Example A26]	0.1 to 1 µM	0.1 to 1 µM	0.1 to 1 µM	1 to 10 µM	0.1 to 1 µM	0.1 to 1 µM	0.1 to 1 µM	0.1 to 1 µM	0.1 to 1 µM	0.1 to 1 µM								
